Source: patent US9895390B2, “Methods and assays for combination treatment of cancer” (CHILDREN'S MEDICAL CENTER CORPORATION, priority 2012, dated 2018)
Like-named read-outs stand apart in the source and are kept apart here.

Legend:
human NSCLC lines = assay: Cytotox assays: chemotherapy dose response curves with or without EZH2 inhibitor, 4 days; type: cell-based; conditions: for IC50: various NSCLC cell lines, 4 days, read-out: etoposide IC50
Method: Cell lines were dissociated, counted and plated at 5000 cells per well in flat bottom opaque tissue culture treated 96 well plates (CytoOne). Edge wells were filled with PBS. The following day, 2× drug diluted in media was added to each well such that the well then contained 100 ul media with 1× drug concentration. After 4 days, Cell Titer Glo™ (Promega) was added and luminescence was read on a BioTec plate reader to determine relative cell number in each well. Data were averaged for triplicate or quadruplicate technical replicates, normalized to the untreated wells and input into GraphPad Prism software to extrapolate IC50.
Cell lines were dissociated, counted and plated at 5000 cells per well in flat bottom opaque tissue culture treated 96 well plates (CytoOne). Edge wells were filled with PBS. The following day, 2× drug diluted in media was added to each well such that the well then contained 100 ul media with 1× drug concentration at the following doses: etoposide; 0, 0.1, 1, 3, 5, 7, 10, 50, 100, 500 μM, cisplatin; 0, 0.1, 1, 5, 10, 30, 70, 100, 500 μM, or doxorubicin; 0, 0.01, 0.1, 0.5, 1, 3, 5, 7, 10, 50 μM. […] Data were averaged for triplicate or quadruplicate technical replicates and normalized to the untreated wells. Results from three or four independent biological replicate experiments were input into […] PRISM™ software to extrapolate IC50 and s.e.m. of IC50 for a given cell line.

EZH2 and H3K27me3 = assay: Western Blot for EZH2 and H3K27me3 on whole cell extracts; type: cell-based, human; conditions: 10 μM GSK126, 7 days in culture
Method: For Western blotting, 25 μg of protein extract per sample was denatured with heat and reducing agents, separated on a 4-12% acrylimide gel and transferred to nitrocellulose. Antibodies used for Western blotting were: EZH2 (Cell Signalling), β-actin (AbCAM) and H3K27me3 (Upstate).
Whole cell extracts were made in RIPA buffer (0.5% Deoxycholate, 1% IGEPAL-CA630, 0.1% sodium dodecyl sulfate, 150 mM NaCL, 50 mM Tris-8.1), lysates were cleared by centrifugation, and protein concentrations were quantified with the Pierce BCA Protein Assay Kit (Thermo). For Western blotting, 25 μg of protein extract per sample was denatured with heat and reducing agents, separated on a 4-12% acrylimide gel (BioRad) and transferred to nitrocellulose (GE Healthcare). Antibodies used for Western blotting were: EZH2 (clone D2C9; Cell Signaling; 1:200), Histone H3 (polyclonal; AbCAM ab1791; 1:2000) and H3K27me3 (polyclonal; Millipore 07-449; 1:1000) all incubated overnight at 4° C. Secondary antibody, anti-rabbit-HRP (Santa Cruz sc-2313; 1:5,000), was incubated for 1 hour at room temperature. After washing, chemi-luminescence was visualized with Western Lightning Plus-ECL (PerkinElmer) and exposure onto KODAK BioMax XAR™ film.

[1] = tested on: BRG1 mutant and BRG1 wild-type cell lines; assay: Gefitinib dose response curves, 4 days; type: cell-based, human; conditions: data not shown

CC[C@H](C)n1cc(C)c2c(C(=O)NCc3c(C)cc(C)[nH]c3=O)cc(-c3ccc(N4CCNCC4)nc3)cc21 [GSK126]
etoposide dose response: classes of GSK126 treated cell lines (human NSCLC lines; 10 μM GSK126): same TopoII inhibitor-sensitized and -protected classes
EZH2 levels (EZH2 and H3K27me3): remained unchanged
H3K27me3 levels (EZH2 and H3K27me3): marked decrease

N.N.[Cl][Pt][Cl] [cisplatin]
cisplatin IC30 (human NSCLC lines; NSCLC cell lines, approximate): ~5 µM

COc1cc([C@@H]2c3cc4c(cc3[C@@H](O[C@@H]3O[C@@H]5CO[C@@H](C)O[C@H]5[C@H](O)[C@H]3O)[C@H]3COC(=O)[C@H]23)OCO4)cc(OC)c1O [etoposide]
IC50 (human NSCLC lines; Homo sapiens, 96 h, approximate): ~10 µM
IC50 (human NSCLC lines; approximate): ~5 µM

COc1cc2ncnc(Nc3ccc(F)c(Cl)c3)c2cc1OCCCN1CCOCC1 [gefitinib]
gefitinib sensitivity of BRG1 mutant vs BRG1 wild-type cell lines [1]: slightly more sensitive
